Measurements reported in patent publication US20200408775A1, “APPARATUS AND METHOD FOR MULTIPLEXED PROTEIN QUANTIFICATION” (BIOMOTIF AB, priority 2018, published 2020).

Tested on: Human Colon Carcinoma Cells HCT116
Assay: Proteome changes in protein abundance upon drug treatment, 3-channel pI-multiplexing LC MS/MS
Format: cell-based
Conditions: 45 nM Methotrexate for 48 h vs 0.01% DMSO control, p<0.05, 570 proteins quantified, 3 biological replicates
Description: A three-channel isoelectric point-based multiplexing was applied for the analysis of proteome changes in protein abundance upon drug treatment, using the following procedure:
Human Colon Carcinoma Cells HCT116 were cultured at 37° C. with 5% CO2 in high-glucose Dulbecco's Modified Eagle's Medium (DMEM, Thermo Fisher Scientific) supplemented with 10% fetal bovine serum (Gibco) and 1% penicillin/streptomycin (Gibco). The cells were treated for 48 h with 45 nM Methotrexate in 0.01% dimethyl sulfoxide (DMSO). As a control experiment, cells were treated with 0.01% DMSO. The medium containing the drug (or 0.01% DMSO for the control) was replaced each 24 h by fresh medium. A total of 3 control samples and 3 treated samples were produced.
Cells (1 million cells per replicate sample) were washed twice with PBS (1 mL) and resuspended in 300 μL of lysis buffer (3% SDC, 20 mM EPPS, pH 8.5). The total protein concentration was measured using the BCA protein assay kit (Pierce) in accordance with the manufacturer's protocol. […]
6. Samples were analyzed together within MaxQuant (1% FDR and match between runs) and Quanty quantification software (1% FDR). Isoelectric point calculations were in-silico calculated as described in Pirmoradian M et al 2014. Proteins containing at least 1 peptide on each pI-channel were selected for quantification.

In the case of CN(Cc1cnc2nc(N)nc(N)c2n1)c1ccc(C(=O)N[C@@H](CCC(=O)O)C(=O)O)cc1 [Methotrexate], the “number of proteins that demonstrated a statistical difference between the control and treated” value is reported as 4.
